Values belong to the compound of their own block, whether it stands above or below them.
Tests used:
[1] = molecular target: T1, Histone deacetylase 3 (Homo sapiens, UniProt O15379); experiment: Inhibition of HDAC3 (unknown origin) at 10 uM
[2] = molecular target: T1, Histone deacetylase 3; experiment: Inhibition of HDAC3 (unknown origin) at 5uM
[3] = molecular target: T2, Histone deacetylase 1 (Homo sapiens, UniProt Q13547); experiment: Inhibition of human recombinant HDAC1 using Fluor-de-Lys as substrate at 50 uM for 30 mins by fluorescence based assay
T2 sequence (Q13547 whole entry): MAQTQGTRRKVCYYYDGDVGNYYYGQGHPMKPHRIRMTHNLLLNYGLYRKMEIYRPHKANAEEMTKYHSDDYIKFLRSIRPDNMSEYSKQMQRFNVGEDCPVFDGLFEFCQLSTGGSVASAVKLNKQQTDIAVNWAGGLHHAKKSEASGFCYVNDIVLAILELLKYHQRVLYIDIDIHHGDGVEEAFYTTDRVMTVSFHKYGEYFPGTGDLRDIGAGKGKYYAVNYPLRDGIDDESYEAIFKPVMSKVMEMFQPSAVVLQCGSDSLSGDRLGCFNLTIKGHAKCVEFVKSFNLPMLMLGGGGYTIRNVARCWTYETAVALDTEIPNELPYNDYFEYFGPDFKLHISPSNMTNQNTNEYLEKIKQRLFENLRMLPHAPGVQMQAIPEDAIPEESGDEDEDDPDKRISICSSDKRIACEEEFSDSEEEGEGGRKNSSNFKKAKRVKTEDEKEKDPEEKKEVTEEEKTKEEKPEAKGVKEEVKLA

[4] = molecular target: T3, Histone deacetylase 2 (Homo sapiens, UniProt Q92769); experiment: Inhibition of human recombinant HDAC2 using Fluor-de-Lys as substrate at 50 uM for 30 mins by fluorescence based assay
T3 sequence (Q92769 whole entry): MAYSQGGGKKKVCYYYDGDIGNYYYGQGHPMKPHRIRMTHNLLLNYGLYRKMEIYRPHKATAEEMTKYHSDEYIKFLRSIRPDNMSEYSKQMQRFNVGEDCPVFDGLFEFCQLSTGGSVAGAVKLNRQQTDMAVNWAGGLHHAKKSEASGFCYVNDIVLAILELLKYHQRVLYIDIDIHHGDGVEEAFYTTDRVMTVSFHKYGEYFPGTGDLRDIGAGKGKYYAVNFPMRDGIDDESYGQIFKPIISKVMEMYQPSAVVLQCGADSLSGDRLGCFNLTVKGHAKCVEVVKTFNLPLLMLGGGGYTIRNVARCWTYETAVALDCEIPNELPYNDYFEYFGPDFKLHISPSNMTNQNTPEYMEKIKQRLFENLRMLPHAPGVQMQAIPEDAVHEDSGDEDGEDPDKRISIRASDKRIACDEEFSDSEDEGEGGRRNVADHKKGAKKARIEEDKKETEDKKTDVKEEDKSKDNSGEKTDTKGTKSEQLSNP

[5] = molecular target: T4, Protein deacetylase HDAC6 (Homo sapiens, UniProt Q9UBN7); experiment: Inhibition of human recombinant HDAC6 using Fluor-de-Lys as substrate at 50 uM for 30 mins by fluorescence based assay
T4 sequence (Q9UBN7 whole entry): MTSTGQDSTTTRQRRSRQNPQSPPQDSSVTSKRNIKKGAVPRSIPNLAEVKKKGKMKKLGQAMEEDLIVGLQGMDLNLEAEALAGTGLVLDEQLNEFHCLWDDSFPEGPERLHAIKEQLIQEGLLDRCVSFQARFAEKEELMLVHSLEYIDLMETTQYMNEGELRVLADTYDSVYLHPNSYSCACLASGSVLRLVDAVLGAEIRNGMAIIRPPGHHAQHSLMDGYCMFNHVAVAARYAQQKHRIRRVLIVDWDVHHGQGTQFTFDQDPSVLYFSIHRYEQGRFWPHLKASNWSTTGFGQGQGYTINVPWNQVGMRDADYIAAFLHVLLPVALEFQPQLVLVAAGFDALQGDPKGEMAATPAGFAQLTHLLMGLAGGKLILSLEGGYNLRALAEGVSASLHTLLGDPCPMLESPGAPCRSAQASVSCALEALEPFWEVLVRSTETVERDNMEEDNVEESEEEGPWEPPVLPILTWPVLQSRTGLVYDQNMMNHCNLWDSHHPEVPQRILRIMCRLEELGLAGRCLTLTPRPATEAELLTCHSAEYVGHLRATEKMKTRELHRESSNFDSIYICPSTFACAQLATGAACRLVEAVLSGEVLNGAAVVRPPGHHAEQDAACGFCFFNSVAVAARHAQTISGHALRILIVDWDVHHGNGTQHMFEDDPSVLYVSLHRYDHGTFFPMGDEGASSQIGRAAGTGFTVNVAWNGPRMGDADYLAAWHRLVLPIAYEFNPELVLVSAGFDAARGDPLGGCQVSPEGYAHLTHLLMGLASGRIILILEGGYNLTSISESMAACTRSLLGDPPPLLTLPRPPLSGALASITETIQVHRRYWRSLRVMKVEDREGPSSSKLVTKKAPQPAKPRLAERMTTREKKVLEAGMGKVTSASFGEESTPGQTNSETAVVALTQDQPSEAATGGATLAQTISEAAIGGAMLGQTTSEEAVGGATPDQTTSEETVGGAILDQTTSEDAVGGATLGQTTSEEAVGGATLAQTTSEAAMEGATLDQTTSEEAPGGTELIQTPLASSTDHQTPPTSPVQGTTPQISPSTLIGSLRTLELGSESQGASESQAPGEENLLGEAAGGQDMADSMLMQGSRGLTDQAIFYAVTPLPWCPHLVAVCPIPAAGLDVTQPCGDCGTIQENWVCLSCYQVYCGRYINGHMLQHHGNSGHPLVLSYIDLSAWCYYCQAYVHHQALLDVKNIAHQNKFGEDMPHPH

[6] = molecular target: T5, Polyamine deacetylase HDAC10 (Homo sapiens, UniProt Q969S8); experiment: Inhibition of human recombinant HDAC10 using Fluor-de-Lys as substrate at 50 uM for 30 mins by fluorescence based assay
T5 sequence (Q969S8 whole entry): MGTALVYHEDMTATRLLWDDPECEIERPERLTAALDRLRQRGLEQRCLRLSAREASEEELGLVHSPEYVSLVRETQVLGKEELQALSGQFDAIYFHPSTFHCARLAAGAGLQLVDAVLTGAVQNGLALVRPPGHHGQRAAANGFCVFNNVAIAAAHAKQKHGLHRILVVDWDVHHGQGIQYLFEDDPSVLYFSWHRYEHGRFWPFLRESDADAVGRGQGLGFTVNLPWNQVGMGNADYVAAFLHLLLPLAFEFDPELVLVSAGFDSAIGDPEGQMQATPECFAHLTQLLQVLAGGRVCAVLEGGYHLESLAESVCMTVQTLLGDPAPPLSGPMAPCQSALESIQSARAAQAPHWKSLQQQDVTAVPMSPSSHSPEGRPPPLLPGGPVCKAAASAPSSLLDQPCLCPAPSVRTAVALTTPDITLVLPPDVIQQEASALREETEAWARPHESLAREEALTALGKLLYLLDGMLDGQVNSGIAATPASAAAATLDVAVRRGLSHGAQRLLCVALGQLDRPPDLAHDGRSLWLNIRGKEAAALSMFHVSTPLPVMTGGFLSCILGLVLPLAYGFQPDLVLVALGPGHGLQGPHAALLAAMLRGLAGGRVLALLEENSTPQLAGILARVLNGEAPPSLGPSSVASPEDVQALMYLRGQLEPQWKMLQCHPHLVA

[7] = system: PC-3; experiment: Anticancer activity against human PC-3 cells assessed as reduction in cell viability; format: functional, cell-based
[8] = molecular target: T2, Histone deacetylase 1; experiment: Inhibition of human recombinant HDAC1 using fluorogenic HDAC substrate measured after 20 mins by fluorescence assay
[9] = molecular target: T3, Histone deacetylase 2; experiment: Inhibition of human recombinant HDAC2 using fluorogenic HDAC substrate measured after 20 mins by fluorescence assay
[10] = molecular target: T1, Histone deacetylase 3; experiment: Inhibition of human HDAC3 using fluorogenic as substrate measured after 30 mins by fluorescence based analysis
[11] = molecular target: T2, Histone deacetylase 1; experiment: Inhibition of human HDAC1 by fluorescence based assay method
[12] = molecular target: T2, Histone deacetylase 1; experiment: Inhibition of human recombinant HDAC1 at 50 uM measured after 24 hrs by fluorometric analysis
[13] = molecular target: T3, Histone deacetylase 2; experiment: Inhibition of recombinant HDAC2 (unknown origin) at 50 uM measured after 24 hrs by fluorometric based analysis
[14] = molecular target: T1, Histone deacetylase 3; experiment: Inhibition of recombinant HDAC3 (unknown origin) measured after 24 hrs by fluorometric analysis

T1 sequence (O15379 whole entry): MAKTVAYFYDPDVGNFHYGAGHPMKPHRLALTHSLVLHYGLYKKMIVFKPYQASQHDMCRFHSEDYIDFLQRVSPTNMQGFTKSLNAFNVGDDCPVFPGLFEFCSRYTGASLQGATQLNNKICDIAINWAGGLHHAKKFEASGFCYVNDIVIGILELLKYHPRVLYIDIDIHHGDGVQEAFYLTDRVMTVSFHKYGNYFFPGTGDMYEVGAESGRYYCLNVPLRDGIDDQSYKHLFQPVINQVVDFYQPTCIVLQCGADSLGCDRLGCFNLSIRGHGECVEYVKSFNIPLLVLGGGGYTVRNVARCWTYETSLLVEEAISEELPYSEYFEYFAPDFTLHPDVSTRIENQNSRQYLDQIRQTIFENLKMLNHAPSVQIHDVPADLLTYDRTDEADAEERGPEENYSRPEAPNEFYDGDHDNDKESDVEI

IC50 [1]: 62500 nM
SMILES: COc1ccc(C(=O)N[C@@H](Cc2c[nH]c3ccccc23)C(=O)Nc2ccc(C(=O)Nc3ccc(-c4cccs4)cc3N)cc2)cc1

IC50 [2]: 97 nM
SMILES: O=C(CCCCCCN1C=Cc2ccccc2C1)NO

IC50 [3]: 67.2 nM | IC50 [4]: 101 nM | IC50 [5]: 9.93 nM | IC50 [6]: 49.3 nM
SMILES: Nc1ccccc1NC(=O)CCCCCCC(=O)NO

IC50 [7]: 1510 nM | IC50 [8]: 4.8 nM | IC50 [9]: 19.5 nM | IC50 [10]: 5.9 nM
SMILES: COc1ccccc1NC(=O)N[C@H](C(=O)Nc1ccc(C(=O)NO)cc1)c1ccccc1

IC50 [11]: 6 nM
SMILES: Nc1ccccc1NC(=O)c1ccc(CNc2nc(-c3ccccc3)c(-c3ccccc3)o2)cc1

IC50 [12]: 1200 nM | IC50 [13]: 1500 nM | IC50 [14]: 80 nM
SMILES: Nc1ccc(F)cc1NC(=O)c1cc2ccccc2o1
